According to ChEMBL document CHEMBL2429745, “Identification of a new class of glucokinase activators through structure-based design” (J Med Chem, 2013):
The source made the active and inactive calls. No cut-off for these calls is given here.

system: Mus musculus; assay: Toxicity in C57BL/6J mouse assessed as induction of hypoglycemia at 50 mg/kg, po administered 30 mins prior to glucose challenge measured over 2 hrs; type: organism-based; design: dose 50 mg/kg, route oral; conditions: in vivo

Structure (SMILES) | Activity
CC(C)c1csc(Nc2ncc(SCCn3ccnc3)cc2OCc2ccccc2)n1 | Non-toxic

target: T1, Hexokinase-4 (Homo sapiens, UniProt P35557); assay: Allosteric activation of human glucokinase using glucose as substrate measured every 10 secs for 5 mins; conditions: not given
T1 sequence (P35557 whole entry): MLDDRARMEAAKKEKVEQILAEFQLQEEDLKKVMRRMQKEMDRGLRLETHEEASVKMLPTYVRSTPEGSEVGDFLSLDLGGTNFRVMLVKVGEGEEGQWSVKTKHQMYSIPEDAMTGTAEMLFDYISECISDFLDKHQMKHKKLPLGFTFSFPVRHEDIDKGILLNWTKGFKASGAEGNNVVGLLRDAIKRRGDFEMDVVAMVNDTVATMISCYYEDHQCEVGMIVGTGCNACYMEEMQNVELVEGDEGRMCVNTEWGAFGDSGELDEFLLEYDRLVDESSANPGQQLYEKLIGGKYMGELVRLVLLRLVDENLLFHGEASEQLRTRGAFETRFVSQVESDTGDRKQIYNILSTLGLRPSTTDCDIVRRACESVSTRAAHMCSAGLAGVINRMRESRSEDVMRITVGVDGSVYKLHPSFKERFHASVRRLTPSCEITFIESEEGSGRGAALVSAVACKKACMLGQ

Structure (SMILES) | EC50
Cc1csc(Nc2ncccc2OCc2cccnc2)n1 | 7780 nM
Cc1csc(Nc2ncccc2OCc2ccccn2)n1 | 12300 nM
CC(C)Cc1csc(Nc2ncc(Br)cc2OCc2ccccc2)n1 | 356 nM
Cc1csc(Nc2ncc(Sc3ccccc3)cc2OCc2ccccc2)n1 | 208 nM
Cc1csc(Nc2ncc(SCc3ccccc3)cc2OCc2ccccc2)n1 | 235 nM
Cc1csc(Nc2ncc(Sc3ccccn3)cc2OCc2ccccc2)n1 | 231 nM
Cc1csc(Nc2ncc(SCc3ccccn3)cc2OCc2ccccc2)n1 | 77 nM
CC(C)c1csc(Nc2ncc(Br)cc2OCc2ccccc2)n1 | 240 nM
Cc1csc(Nc2ncc(Br)cc2OCc2ccccc2)n1 | 687 nM
COc1cccc(COc2cccnc2Nc2nc(C)cs2)c1 | 3220 nM
CCc1csc(Nc2ncc(Br)cc2OCc2ccccc2)n1 | 562 nM
Cc1csc(Nc2ncc(Cl)cc2OCc2ccccc2)n1 | 796 nM
Cc1csc(Nc2ncccc2OCc2cccc(O)c2)n1 | 3440 nM
Cc1csc(Nc2ncc(SCCn3ccnc3)cc2OCc2ccccc2)n1 | 325 nM
Cc1csc(Nc2ncccc2OCc2cccc3cccnc23)n1 | 1700 nM

system: not listed separately; assay: Terminal plasma concentration in C57BL/6J mouse at 50 mg/kg, po administered 30 mins measured after 2.5 hrs; type: ADME, organism-based; design: dose 50 mg/kg, route oral; conditions: read-out: Cp(T)

Structure (SMILES) | concentration at 2.5 h
CC(C)c1csc(Nc2ncc(SCCn3ccnc3)cc2OCc2ccccc2)n1 | 4500 ng/mL

system: Mus musculus; assay: Antidiabetic activity in C57BL/6J mouse assessed as reduction of glucose excursion at 50 mg/kg, po administered 30 mins prior to glucose challenge measured over 2 hrs by OGTT; type: functional, organism-based; design: dose 50 mg/kg; conditions: not given

Structure (SMILES) | Activity
CC(C)c1csc(Nc2ncc(SCCn3ccnc3)cc2OCc2ccccc2)n1 | Active

system: Rattus norvegicus; assay: Antidiabetic activity in high fat-fed Zucker diabetic fatty rat assessed as decrease in blood glucose AUC at 50 mg/kg, po after 21 days on high-fat diet measured for 2 hrs post dose by OGTT relative to control; design: scale not given: the % may be the effect or the level left; conditions: not given

Structure (SMILES) | Activity
CC(C)c1csc(Nc2ncc(SCCn3ccnc3)cc2OCc2ccccc2)n1 | 23%
N#C[C@@H]1CCCN1C(=O)CNC12CC3CC(CC(O)(C3)C1)C2 [VILDAGLIPTIN] | 24%
